# Experimental data published in ChEMBL document CHEMBL1147478, “Phosphonate inhibitors of antigen 85C, a crucial enzyme involved in the biosynthesis of the Mycobacterium tuberculosis cell wall” (Bioorg Med Chem Lett, 2004).
# Molecular target: Diacylglycerol acyltransferase/mycolyltransferase Ag85C (Mycobacterium tuberculosis, UniProt P9WQN9)
# Test: In vitro concentration required to inhibit antigen 85C mycolyltransferase activity in Mycobacterium tuberculosis
# Chain of Diacylglycerol acyltransferase/mycolyltransferase Ag85C (P9WQN9 whole entry): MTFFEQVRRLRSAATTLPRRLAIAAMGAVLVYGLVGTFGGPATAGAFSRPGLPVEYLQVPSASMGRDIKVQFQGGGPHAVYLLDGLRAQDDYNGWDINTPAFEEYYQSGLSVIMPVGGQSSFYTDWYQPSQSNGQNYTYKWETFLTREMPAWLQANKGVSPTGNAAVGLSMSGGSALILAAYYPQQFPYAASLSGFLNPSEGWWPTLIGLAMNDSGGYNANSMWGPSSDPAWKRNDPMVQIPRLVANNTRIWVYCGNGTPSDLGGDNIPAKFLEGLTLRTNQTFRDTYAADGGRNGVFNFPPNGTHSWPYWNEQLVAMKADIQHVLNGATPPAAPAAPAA
row,SMILES,IC50 [µM]
1,CCCCCCCP(=O)(OCC)OCN1C(=O)c2ccccc2C1=O (configuration not stated),1.31
2,CCCCCCCCCCCCCCP(=O)(OCC)OCN1C(=O)c2ccccc2C1=O (configuration not stated),41
3,CCCCP(=O)(OCC)OCc1cccc(Oc2ccccc2)c1 (configuration not stated),2.01
4,CCCCCCP(=O)(OCC)OCc1cccc(Oc2ccccc2)c1 (configuration not stated),42.6
5,CCCCCCCCCP(=O)(OCC)OCCN1C(=O)c2ccccc2C1=O (configuration not stated),25.7
6,CCCCCCCCCCCCCCP(=O)(OCC)OCc1cccc(Oc2ccccc2)c1 (configuration not stated),862
7,CCCCCCCP(=O)(OCC)OCc1cccc(Oc2ccccc2)c1 (configuration not stated),21
8,CCCCCCCCCP(=O)(OCC)OCc1cccc(Oc2ccccc2)c1 (configuration not stated),14.8
9,CCCCCCCP(=O)(O)OCCN1C(=O)c2ccccc2C1=O,1.47
10,CCCCCCCCCP(=O)(OCC)OCN1C(=O)c2ccccc2C1=O (configuration not stated),87.1
11,CCCCP(=O)(OCC)OCN1C(=O)c2ccccc2C1=O (configuration not stated),10
12,CCCCP(=O)(OCC)OCCN1C(=O)c2ccccc2C1=O (configuration not stated),50.7
13,CCCCCCP(=O)(O)OCCN1C(=O)c2ccccc2C1=O,4.39
14,CCCCP(=O)(O)OCC [ETHYL HYDROGEN BUTYLPHOSPHONATE],431
15,CCCCCCCP(=O)(O)OCC [ETHYL HYDROGEN HEPTYLPHOSPHONATE],1.06
16,CCCCCCP(=O)(O)OCC [ETHYL HYDROGEN HEXYLPHOSPHONATE],3.56
17,CCCCCCCCCP(=O)(O)OCC [ETHYL HYDROGEN NONYLPHOSPHONATE],471
